Measured values published in US20260355361A1, “METHODS FOR DIAGNOSIS AND TREATMENT OF PULMONARY HYPERTENSION” (THE METHODIST HOSPITAL, priority 2022, published 2026).

Biological target: VEGFr2 (Rattus norvegicus, UniProt O08775)
Assay: PET imaging of ^18F-ZD-G2 versus ^18FDG in MCT rat model of PAH
Type: in vivo
Conditions: early stage of PAH (MCT-10 days and MCT-2 weeks); PET at 60 minutes after injection
Experimental: Images of ^18F-ZD-G2 probe and ^18FDG were compared. Rats exposed to monocrotaline were used to develop pulmonary arterial hypertension rat model (MCT), while healthier rats were used as a control group.
Images of ^18F-ZD-G2 probe and ^18FDG were compared.
A PET imaging study was further performed with ^18F-ZD-G2 using MCT rat model as previous described. Healthy rats were used as control. Clinically used ^18FDG PET imaging was also performed on both groups of […] following the same imaging protocol for comparison.

Sequence of VEGFr2 (O08775 20-1343): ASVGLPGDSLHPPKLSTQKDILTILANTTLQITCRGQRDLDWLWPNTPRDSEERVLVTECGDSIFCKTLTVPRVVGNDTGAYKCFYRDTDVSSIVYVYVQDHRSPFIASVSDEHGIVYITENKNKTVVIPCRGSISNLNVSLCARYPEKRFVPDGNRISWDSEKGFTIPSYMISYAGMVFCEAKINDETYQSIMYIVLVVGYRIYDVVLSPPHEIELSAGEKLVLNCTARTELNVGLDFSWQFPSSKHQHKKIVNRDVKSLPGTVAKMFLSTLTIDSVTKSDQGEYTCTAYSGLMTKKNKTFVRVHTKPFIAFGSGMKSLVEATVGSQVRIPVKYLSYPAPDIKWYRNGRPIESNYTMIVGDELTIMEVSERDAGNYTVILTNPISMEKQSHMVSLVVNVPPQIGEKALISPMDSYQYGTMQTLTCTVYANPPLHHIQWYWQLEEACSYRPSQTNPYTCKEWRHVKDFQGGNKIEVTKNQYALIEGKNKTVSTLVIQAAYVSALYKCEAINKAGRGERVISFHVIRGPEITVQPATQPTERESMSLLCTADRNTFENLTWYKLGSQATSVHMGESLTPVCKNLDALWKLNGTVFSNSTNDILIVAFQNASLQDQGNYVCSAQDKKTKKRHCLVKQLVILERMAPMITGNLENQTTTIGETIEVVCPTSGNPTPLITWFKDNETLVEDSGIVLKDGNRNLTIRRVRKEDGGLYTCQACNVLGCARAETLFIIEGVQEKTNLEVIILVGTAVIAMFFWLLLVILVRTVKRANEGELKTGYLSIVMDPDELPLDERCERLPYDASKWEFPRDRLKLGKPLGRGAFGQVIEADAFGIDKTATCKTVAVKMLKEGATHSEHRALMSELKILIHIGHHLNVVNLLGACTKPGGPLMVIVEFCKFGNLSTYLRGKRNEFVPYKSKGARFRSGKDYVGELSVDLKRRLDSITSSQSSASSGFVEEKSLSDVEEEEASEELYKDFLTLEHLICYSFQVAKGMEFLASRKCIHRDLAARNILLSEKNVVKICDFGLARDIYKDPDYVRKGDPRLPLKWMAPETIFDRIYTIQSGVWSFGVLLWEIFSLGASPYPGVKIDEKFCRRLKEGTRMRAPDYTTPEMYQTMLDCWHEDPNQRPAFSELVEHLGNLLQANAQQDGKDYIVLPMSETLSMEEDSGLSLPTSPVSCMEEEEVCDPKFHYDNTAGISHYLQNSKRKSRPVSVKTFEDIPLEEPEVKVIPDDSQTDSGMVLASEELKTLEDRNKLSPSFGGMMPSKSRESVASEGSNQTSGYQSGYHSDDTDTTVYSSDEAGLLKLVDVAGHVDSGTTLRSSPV

## OC[C@H]1OC(O)[C@H]([18F])[C@@H](O)[C@@H]1O (stereo partly shown) [^18FDG]
  Lung uptake, MCT versus control: no obvious difference
